What was measured:
Type in all cases: in vivo
corn (Zea mays) = assay: Test A pre-/postemergence: corn; details: for Corn plant response rating: visual rating on 0 to 100 scale (0 no effect, 100 complete control), approximately ten days
How it was run: (§1)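 Visual 0–100 injury ratings (0 no effect, 100 complete control) taken about ten days after treatment, relative to untreated controls. Preemergence treatment was a directed soil spray; postemergence plants were 2–10 cm tall at one- to two-leaf stage. Soil: loam/sand blend.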

[1] = tested on: ragweed (common ragweed, Ambrosia elation); assay: Test C pre-/postemergence: ragweed
How it was run: (§2)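 Preemergence on seeds in loam/sand, postemergence on 2–18 cm (1–4-leaf) plants in peat-based medium; compounds in non-phytotoxic solvent with surfactant. After 13–15 days in greenhouse, visual rating versus controls, 0 (no effect) to 100 (complete control).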

[2] = tested on: pigweed (Amaranthus retroflexus); assay: Test C pre-/postemergence: pigweed
How it was run: as §2

[3] = tested on: wheat (Triticum aestivum); assay: Test A pre-/postemergence: wheat; details: for Wheat plant response rating: visual rating on 0 to 100 scale (0 no effect, 100 complete control), approximately ten days
How it was run: as §1

[4] = tested on: foxtail, giant (giant foxtail, Setaria faberii); assay: Test C pre-/postemergence: foxtail, giant
How it was run: as §2

[5] = tested on: galium (catchweed bedstraw, Galium aparine); assay: Test C pre-/postemergence: galium
How it was run: as §2

[6] = tested on: morningglory (Ipomoea spp.); assay: Test A pre-/postemergence: morningglory; details: for Morningglory plant response rating: visual rating on 0 to 100 scale (0 no effect, 100 complete control), approximately ten days
How it was run: as §1

kochia (Kochia scoparia) = assay: Test C pre-/postemergence: kochia; details: Postemergence
How it was run: as §2

[7] = tested on: ryegrass, Italian (Italian ryegrass, Lolium multiflorum); assay: Test C pre-/postemergence: ryegrass, Italian
How it was run: as §2

[8] = tested on: large crabgrass (Digitaria sanguinalis); assay: Test C pre-/postemergence: large crabgrass
How it was run: as §2

[9] = tested on: velvetleaf (Abutilon theophrasti); assay: Test C pre-/postemergence: velvetleaf
How it was run: as §2

[10] = tested on: johnsongrass (Sorghum halepense); assay: Test C pre-/postemergence: johnsongrass
How it was run: as §2

[11] = Postemergence, 125 g ai/ha, 0 to 100 scale, 0 is no effect, 100 is complete control
[12] = Preemergence, 125 g ai/ha, 0 to 100 scale where 0 is no effect and 100 is complete control
[13] = Preemergence, 500 g ai/ha, 0 to 100 scale (0 no effect, 100 complete control)
[14] = Postemergence, 31 g ai/ha, scale 0 to 100 (0 no effect, 100 complete control)
[15] = Postemergence, 62 g ai/ha, scale 0 to 100 (0 no effect, 100 complete control)
[16] = Postemergence, 125 g ai/ha, scale 0 to 100, 0 no effect, 100 complete control
[17] = Postemergence, 250 g ai/ha, scale 0 to 100
[18] = Preemergence, 31 g ai/ha, scale of 0 to 100, 0 is no effect, 100 is complete control
[19] = Preemergence, 62 g ai/ha, scale of 0 to 100, 0 is no effect, 100 is complete control
[20] = Preemergence, 125 g ai/ha, scale 0 to 100, 0 no effect, 100 complete control
[21] = Preemergence, 250 g ai/ha, scale 0 to 100, 0 no effect, 100 complete control
[22] = 31 g ai/ha, scale 0 to 100 (0 no effect, 100 complete control)
[23] = 62 g ai/ha, scale 0 to 100 (0 no effect, 100 complete control)
[24] = 125 g ai/ha, scale 0 to 100, 0 no effect, 100 complete control

CCCc1nn(-c2ccc(F)cc2)nc1Cc1ccnc(C(F)(F)F)c1 [Compound 153]
Plant response rating, Corn (corn (Zea mays); [11]): 60 | Corn plant response rating (corn (Zea mays); Postemergence, 500 g ai/ha): 80 | Plant response rating, Corn (corn (Zea mays); [12]): 70 | Plant response rating, Corn (corn (Zea mays); [13]): 80 | Plant response rating, Ragweed [1, 14]: 55 | Plant response rating, Ragweed [1, 15]: 55 | Plant response rating, Ragweed [1, 16]: 80 | Plant response rating, Ragweed [1, 17]: 85 | Plant response rating, Ragweed [1, 18]: 5 | Plant response rating, Ragweed [1, 19]: 10 | Plant response rating, Ragweed [1, 20]: 80 | Plant response rating, Ragweed [1, 21]: 80 | Plant response rating, Pigweed [2, 14]: 95 | Plant response rating, Pigweed [2, 15]: 95 | Plant response rating, Pigweed [2, 16]: 98 | Plant response rating, Pigweed [2, 17]: 98 | Plant response rating, Pigweed [2, 18]: 100 | Plant response rating, Pigweed [2, 19]: 100 | Plant response rating, Pigweed [2, 20]: 100 | Plant response rating, Pigweed [2, 21]: 100 | Plant response rating, Wheat [3, 11]: 60 | Wheat plant response rating ([3]; Postemergence, 500 g ai/ha): 70 | Plant response rating, Wheat [3, 12]: 50 | Plant response rating, Wheat [3, 13]: 70 | Plant response rating, Foxtail, Giant [4, 14]: 45 | Plant response rating, Foxtail, Giant [4, 15]: 80 | Plant response rating, Foxtail, Giant [4, 16]: 90 | Plant response rating, Foxtail, Giant [4, 17]: 95 | Plant response rating, Foxtail, Giant [4, 18]: 100 | Plant response rating, Foxtail, Giant [4, 19]: 100 | Plant response rating, Foxtail, Giant [4, 20]: 100 | Plant response rating, Foxtail, Giant [4, 21]: 100 | Plant response rating, Galium [5, 14]: 60 | Plant response rating, Galium [5, 15]: 65 | Plant response rating, Galium [5, 16]: 85 | Plant response rating, Galium [5, 17]: 85 | Plant response rating, Galium [5, 18]: 80 | Plant response rating, Galium [5, 19]: 98 | Plant response rating, Galium [5, 20]: 100 | Plant response rating, Galium [5, 21]: 100 | Plant response rating, Morningglory [6, 11]: 90 | Morningglory plant response rating ([6]; Postemergence, 500 g ai/ha): 100 | Plant response rating, Morningglory [6, 12]: 80 | Plant response rating, Morningglory [6, 13]: 100 | Plant response rating, Kochia (kochia (Kochia scoparia); [22]): 90 | Plant response rating, Kochia (kochia (Kochia scoparia); [23]): 90 | Plant response rating, Kochia (kochia (Kochia scoparia); [24]): 90 | Plant response rating, Kochia (kochia (Kochia scoparia); 250 g ai/ha, scale 0 to 100): 90 | Plant response rating, Ryegrass, Italian [7, 14]: 30 | Plant response rating, Ryegrass, Italian [7, 15]: 35 | Plant response rating, Ryegrass, Italian [7, 16]: 60 | Plant response rating, Ryegrass, Italian [7, 17]: 65 | Plant response rating, Ryegrass, Italian [7, 18]: 60 | Plant response rating, Ryegrass, Italian [7, 19]: 90 | Plant response rating, Ryegrass, Italian [7, 20]: 90 | Plant response rating, Ryegrass, Italian [7, 21]: 90 | Plant response rating, Crabgrass, Large [8, 14]: 50 | Plant response rating, Crabgrass, Large [8, 15]: 55 | Plant response rating, Crabgrass, Large [8, 16]: 80 | Plant response rating, Crabgrass, Large [8, 17]: 90 | Plant response rating, Crabgrass, Large [8, 18]: 100 | Plant response rating, Crabgrass, Large [8, 19]: 100 | Plant response rating, Crabgrass, Large [8, 20]: 100 | Plant response rating, Crabgrass, Large [8, 21]: 100 | Plant response rating, Velvetleaf [9, 14]: 50 | Plant response rating, Velvetleaf [9, 15]: 60 | Plant response rating, Velvetleaf [9, 16]: 65 | Plant response rating, Velvetleaf [9, 17]: 95 | Plant response rating, Velvetleaf [9, 19]: 85 | Plant response rating, Velvetleaf [9, 20]: 95 | Plant response rating, Velvetleaf [9, 21]: 100 | Plant response rating, Johnsongrass [10, 14]: 40 | Plant response rating, Johnsongrass [10, 16]: 60 | Plant response rating, Johnsongrass [10, 17]: 90 | Plant response rating, Johnsongrass [10, 18]: 90 | Plant response rating, Johnsongrass [10, 19]: 90 | Plant response rating, Johnsongrass [10, 20]: 95 | Plant response rating, Johnsongrass [10, 21]: 98

Cc1nn(-c2ccc(C(F)(F)F)c(F)c2)nc1Cc1ccnc(C(F)(F)F)c1 [Compound 162]
Plant response rating, Corn (corn (Zea mays); [11]): 20 | Corn plant response rating (corn (Zea mays); Postemergence, 500 g ai/ha): 40 | Plant response rating, Corn (corn (Zea mays); [12]): 20 | Plant response rating, Corn (corn (Zea mays); [13]): 30 | Plant response rating, Ragweed [1, 14]: 85 | Plant response rating, Ragweed [1, 16]: 85 | Plant response rating, Ragweed [1, 17]: 95 | Plant response rating, Ragweed [1, 18]: 50 | Plant response rating, Ragweed [1, 19]: 75 | Plant response rating, Ragweed [1, 20]: 80 | Plant response rating, Ragweed [1, 21]: 95 | Plant response rating, Pigweed [2, 14]: 85 | Plant response rating, Pigweed [2, 15]: 85 | Plant response rating, Pigweed [2, 16]: 90 | Plant response rating, Pigweed [2, 17]: 95 | Plant response rating, Pigweed [2, 18]: 100 | Plant response rating, Pigweed [2, 19]: 100 | Plant response rating, Pigweed [2, 20]: 100 | Plant response rating, Pigweed [2, 21]: 100 | Plant response rating, Wheat [3, 11]: 20 | Wheat plant response rating ([3]; Postemergence, 500 g ai/ha): 30 | Plant response rating, Wheat [3, 12]: 10 | Plant response rating, Wheat [3, 13]: 30 | Plant response rating, Foxtail, Giant [4, 14]: 45 | Plant response rating, Foxtail, Giant [4, 15]: 55 | Plant response rating, Foxtail, Giant [4, 16]: 65 | Plant response rating, Foxtail, Giant [4, 17]: 98 | Plant response rating, Foxtail, Giant [4, 18]: 98 | Plant response rating, Foxtail, Giant [4, 19]: 100 | Plant response rating, Foxtail, Giant [4, 20]: 100 | Plant response rating, Foxtail, Giant [4, 21]: 100 | Plant response rating, Galium [5, 14]: 75 | Plant response rating, Galium [5, 15]: 75 | Plant response rating, Galium [5, 16]: 80 | Plant response rating, Galium [5, 17]: 95 | Plant response rating, Galium [5, 18]: 100 | Plant response rating, Galium [5, 20]: 100 | Plant response rating, Galium [5, 21]: 100 | Plant response rating, Morningglory [6, 11]: 90 | Morningglory plant response rating ([6]; Postemergence, 500 g ai/ha): 90 | Plant response rating, Morningglory [6, 12]: 30 | Plant response rating, Morningglory [6, 13]: 90 | Plant response rating, Kochia (kochia (Kochia scoparia); [22]): 90 | Plant response rating, Kochia (kochia (Kochia scoparia); [23]): 90 | Plant response rating, Kochia (kochia (Kochia scoparia); [24]): 95 | Plant response rating, Kochia (kochia (Kochia scoparia); 250 g ai/ha, scale 0 to 100): 95 | Plant response rating, Ryegrass, Italian [7, 14]: 30 | Plant response rating, Ryegrass, Italian [7, 15]: 35 | Plant response rating, Ryegrass, Italian [7, 16]: 60 | Plant response rating, Ryegrass, Italian [7, 17]: 80 | Plant response rating, Ryegrass, Italian [7, 18]: 60 | Plant response rating, Ryegrass, Italian [7, 19]: 80 | Plant response rating, Ryegrass, Italian [7, 20]: 90 | Plant response rating, Ryegrass, Italian [7, 21]: 95 | Plant response rating, Crabgrass, Large [8, 14]: 20 | Plant response rating, Crabgrass, Large [8, 15]: 35 | Plant response rating, Crabgrass, Large [8, 16]: 35 | Plant response rating, Crabgrass, Large [8, 17]: 80 | Plant response rating, Crabgrass, Large [8, 18]: 100 | Plant response rating, Crabgrass, Large [8, 19]: 100 | Plant response rating, Crabgrass, Large [8, 20]: 100 | Plant response rating, Crabgrass, Large [8, 21]: 100 | Plant response rating, Velvetleaf [9, 14]: 35 | Plant response rating, Velvetleaf [9, 15]: 55 | Plant response rating, Velvetleaf [9, 16]: 60 | Plant response rating, Velvetleaf [9, 17]: 85 | Plant response rating, Velvetleaf [9, 18]: 55 | Plant response rating, Velvetleaf [9, 19]: 80 | Plant response rating, Velvetleaf [9, 20]: 100 | Plant response rating, Velvetleaf [9, 21]: 100 | Plant response rating, Johnsongrass [10, 14]: 45 | Plant response rating, Johnsongrass [10, 15]: 80 | Plant response rating, Johnsongrass [10, 16]: 80 | Plant response rating, Johnsongrass [10, 17]: 98 | Plant response rating, Johnsongrass [10, 18]: 35 | Plant response rating, Johnsongrass [10, 19]: 60 | Plant response rating, Johnsongrass [10, 20]: 98 | Plant response rating, Johnsongrass [10, 21]: 98
